Assay results reported in patent US10442833B1 (KING SAUD UNIVERSITY, priority 2018, dated 2019).
Values after ≈ are worked out from the molar mass of the structure shown.

Legend:
[1] = tested on: Geotricum candidum (RCMB 05007); test: Agar well diffusion, Geotricum candidum; assay type: cell-based; details: Reference Drug, 30 μg/mL; well diameter 6 mm; 37° C., 18 to 24 h
Experimental: (§1) Antimicrobial tests were carried out by agar well diffusion according to the National Committee for Clinical Laboratory Standards (NCCLS) criteria.
(§2) Bacterial and fungal suspensions were prepared at 0.5 McFarland standard turbulence in a volume of 100 μL and were cultivated on Mueller-Hinton agar and Sabouraud dextrose media punched with 6-mm diameter wells for the bacteria and fungi, respectively. Then, 100 μl of 10% tested sample was added to the wells, while 10% DMSO was used as the negative control. Ampicillin, gentamicin, and amphotericin B (30 μg/mL) were used as standard agents against the Gram-positive bacteria, Gram-negative bacteria, and fungi, respectively. After incubation of the plates at 37° C. for 18 to 24 h, the antimicrobial activity was evaluated by measuring the diameter of the inhibition zones. Each test was performed in triplicate and the average of the results was calculated. The extraction solvents were used as negative controls (NCCLS, 2002; 2004).

[2] = tested on: Absidia corymbifera (RCMB 02564); test: Agar well diffusion, Absidia corymbifera; assay type: cell-based; details: Reference Drug, 30 μg/mL; well diameter 6 mm; 37° C., 18 to 24 h
Experimental: as §1, §2

Candida albicans (RCMB) = test: Agar well diffusion, Candida albicans; assay type: cell-based; details: Reference Drug, 30 μg/mL; well diameter 6 mm; 37° C., 18 to 24 h
Experimental: as §1, §2

[3] = tested on: Salmonella enteritidis (RCMB 010084); test: Agar well diffusion, Salmonella enteritidis; assay type: cell-based; details: Reference Drug, 30 μg/mL; well diameter 6 mm; 37° C., 18 to 24 h; in mm
Experimental: (§3) Antimicrobial tests were carried out by agar well diffusion according to the National Committee for Clinical Laboratory Standards (NCCLS) criteria. […] Then, 100 μl of 10% tested sample was added to the wells, while 10% DMSO was used as the negative control. […] Each test was performed in triplicate and the average of the results was calculated. The extraction solvents were used as negative controls (NCCLS, 2002; 2004).

[4] = tested on: Proteous vulgaris (RCMB 010085); test: Agar well diffusion, Proteous vulgaris; assay type: cell-based; details: Reference Drug, 30 μg/mL; well diameter 6 mm; 37° C., 18 to 24 h; in mm
Experimental: as §3

[5] = tested on: Klebsiella pneumoniae (RCMB 0010093); test: Agar well diffusion, Klebsiella pneumoniae; assay type: cell-based; details: Reference Drug, 30 μg/mL; well diameter 6 mm; 37° C., 18 to 24 h; in mm
Experimental: as §3

[6] = tested on: Staphylococcus aureus (RCMB 010027); test: Agar well diffusion, Staphylococcus aureus; assay type: cell-based; details: Reference Drug, 30 μg/mL; well diameter 6 mm; 37° C., 18 to 24 h; in mm
Experimental: as §3

[7] = tested on: Staphylococcus epidermidis (RCMB 010024); test: Agar well diffusion, Staphylococcus epidermidis; assay type: cell-based; details: Reference Drug, 30 μg/mL; well diameter 6 mm; 37° C., 18 to 24 h; in mm
Experimental: as §3

[8] = tested on: Streptococcus pyogenes (RCMB 010015); test: Agar well diffusion, Streptococcus pyogenes; assay type: cell-based; details: Reference Drug, 30 μg/mL; well diameter 6 mm; 37° C., 18 to 24 h; in mm
Experimental: as §3

[9] = tested on: MDA (breast cancer cells); details: reported by Al-Massarani et al., Molecules 2017; cited from earlier work
A549 cells = details: reported by Al-Massarani et al., Molecules 2017; cited from earlier work
Hela cells = details: reported by Al-Massarani et al., Molecules 2017; cited from earlier work

Molecule: C[C@@H]1[C@H](O)[C@@H](C)/C=C/C=C/C=C/C=C/C=C/C=C/C=C/[C@H](O[C@@H]2O[C@H](C)[C@@H](O)[C@H](N)[C@@H]2O)C[C@@H]2O[C@](O)(C[C@@H](O)C[C@@H](O)[C@H](O)CC[C@@H](O)C[C@@H](O)CC(=O)O[C@H]1C)C[C@H](O)[C@H]2C(=O)O [Amphotericin B]
- Zone of Inhibition [1]: 27.0
- Zone of Inhibition [2]: 23.0
- Zone of Inhibition (Candida albicans (RCMB)): 25.7

Molecule: Gentamycin
- Zone of Inhibition [3]: 25.2
- Zone of Inhibition [4]: 23.4
- Zone of Inhibition [5]: 26.4

Molecule: CC1(C)S[C@@H]2[C@H](NC(=O)[C@H](N)c3ccccc3)C(=O)N2[C@H]1C(=O)O [Ampicillin]
- Zone of Inhibition [6]: 27.3
- Zone of Inhibition [7]: 25.0
- Zone of Inhibition [8]: 26.3

Molecule: C[C@H]1[C@H](C)CC[C@]2(C(=O)O)CC[C@]3(C)C(=CC[C@@H]4[C@@]5(C)CC[C@H](O)C(C)(C)[C@@H]5CC[C@]43C)[C@H]12 [ursolic acid]
- IC50 [9]: 47.76 µg/mL (≈ 105 µM)
- IC50 (A549 cells): 65.2 µg/mL (≈ 143 µM)
- IC50 (Hela cells): 50.2 µg/mL (≈ 110 µM)
